Measurements from PubChem BioAssay (NCI).
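Abbreviation: GI50, concentration required for 50% inhibition of growth. Definition used: TGI = concentration required for complete inhibition of growth.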

Key:
Test in all cases: NCI anticancer screen, dose series, 384-well format
SK-MEL-2 melanoma = test system: SK-MEL-2 melanoma
UACC-257 melanoma = test system: UACC-257 melanoma
OVCAR-4 ovarian = test system: OVCAR-4 ovarian
OVCAR-3 ovarian = test system: OVCAR-3 ovarian
SF-295 CNS = test system: SF-295 CNS
CAKI-1 renal = test system: CAKI-1 renal
UACC-62 melanoma = test system: UACC-62 melanoma
OVCAR-5 ovarian = test system: OVCAR-5 ovarian
M14 melanoma = test system: M14 melanoma
SNB-75 CNS = test system: SNB-75 CNS
MDA-MB-231 breast = test system: MDA-MB-231 breast
KM12 colon = test system: KM12 colon
MALME-3M melanoma = test system: MALME-3M melanoma

SMILES: Cc1ccc2c(N)c(C(=O)N[C@H]3CCc4cc(N5CC6CCC(C5)N6)ccc4C3)sc2n1
- GI50 (SK-MEL-2 melanoma): 121 nM
- TGI (SK-MEL-2 melanoma): 421 nM
- GI50 (UACC-257 melanoma): 194 nM
- TGI (UACC-257 melanoma): 775 nM
- GI50 (OVCAR-4 ovarian): 127 nM
- TGI (OVCAR-4 ovarian): 460 nM
- GI50 (OVCAR-3 ovarian): 129 nM
- TGI (OVCAR-3 ovarian): 513 nM
- GI50 (SF-295 CNS): 335 nM
- TGI (SF-295 CNS): 919 nM
- GI50 (CAKI-1 renal): 234 nM
- TGI (CAKI-1 renal): 1110 nM
- GI50 (UACC-62 melanoma): 241 nM
- TGI (UACC-62 melanoma): 811 nM
- GI50 (OVCAR-5 ovarian): 277 nM
- TGI (OVCAR-5 ovarian): 795 nM
- GI50 (M14 melanoma): 104 nM
- TGI (M14 melanoma): 343 nM
- GI50 (SNB-75 CNS): 219 nM
- TGI (SNB-75 CNS): 682 nM
- GI50 (MDA-MB-231 breast): 219 nM
- TGI (MDA-MB-231 breast): 972 nM
- GI50 (KM12 colon): 228 nM
- TGI (KM12 colon): 1200 nM
- GI50 (MALME-3M melanoma): 164 nM
- TGI (MALME-3M melanoma): 443 nM
